# Reference: paper PMC7687369 (Antiviral Research, 2020)
# Columns and labels:
# MERS-CoV = settings: cited from earlier work
# SARS-CoV-2 [1] = assay: Viral replication assay in Vero E6-hTMPRSS2 cells; assay type: cell-based
# SARS-CoV = settings: cited from earlier work
# SARS-CoV-2 [2] = assay type: cell-based; settings: Vero E6-hTMPRSS2 cells
# SARS-CoV-2 [3] = assay type: cell-based
smiles,measurement,setting,value
CC[C@@H](C(=O)[C@@H](C)[C@@H](O)[C@H](C)[C@@H]1O[C@@H]([C@@H](CC)C(=O)O)CC[C@@H]1C)[C@H]1O[C@]2(C=C[C@@H](O)[C@]3(CC[C@@](C)([C@H]4CC[C@](O)(CC)[C@H](C)O4)O3)O2)[C@H](C)C[C@@H]1C [Salinomycin],inhibition of the cytopathogenic effect of MERS-CoV,MERS-CoV,could inhibit the cytopathogenic effect of MERS-CoV
same,inhibition of viral replication (in words),SARS-CoV-2 [1],potent inhibition
same,inhibition of the cytopathogenic effect of SARS-CoV,SARS-CoV,but not SARS-CoV
CC[C@@]1([C@@H]2O[C@@H]([C@H]3O[C@@](O)(CO)[C@H](C)C[C@@H]3C)C[C@@H]2C)CC[C@H]([C@]2(C)CC[C@]3(C[C@H](O)[C@@H](C)[C@@H]([C@@H](C)[C@@H](OC)[C@H](C)C(=O)O)O3)O2)O1 [Monensin],inhibition of the cytopathogenic effect of MERS-CoV,MERS-CoV,could inhibit the cytopathogenic effect of MERS-CoV
same,inhibition of the cytopathogenic effect of SARS-CoV,SARS-CoV,but not SARS-CoV
CCC(CC)COC(=O)[C@H](C)N[P@](=O)(OC[C@H]1O[C@@](C#N)(c2ccc3c(N)ncnn23)[C@H](O)[C@@H]1O)Oc1ccccc1 [Remdesivir],selectivity between viral-induced cytopathogenicity and inhibition of cell viability,SARS-CoV-2 [2],> 67 fold
CNc1ccc2oc(C[C@H]3O[C@@]4(CC[C@H]3C)O[C@H]([C@H](C)C(=O)c3ccc[nH]3)[C@H](C)C[C@H]4C)nc2c1C(=O)O [Calcimycin],selectivity between viral-induced cytopathogenicity and inhibition of cell viability,SARS-CoV-2 [2],18 fold
CO[C@@H]1[C@@H](OC)[C@H](C)[C@@](O)(CC(=O)O)O[C@H]1[C@H](C)[C@H]1O[C@@]2(CC[C@@](C)([C@H]3CC[C@@](C)([C@@H]4O[C@@H]([C@H]5O[C@](C)(O)[C@H](C)C[C@@H]5C)C[C@@H]4O[C@@H]4C[C@H](OC)[C@@H](OC)[C@H](C)O4)O3)O2)C[C@H](O)[C@H]1C [Maduramycin],selectivity between viral-induced cytopathogenicity and inhibition of cell viability,SARS-CoV-2 [2],313 fold
CCN(CCO)CCCC(C)Nc1ccnc2cc(Cl)ccc12 (stereo not drawn) [Hydroxychloroquine],"antiviral activity, SARS-CoV-2 RNA (in words)",SARS-CoV-2 [3],effective in wildtype Vero E6 cells at high micromolar concentrations
same,inhibition of viral replication (in words),SARS-CoV-2 [1],did not efficiently inhibit viral replication
same,anti-viral activity in the cytopathogenic effect screen (in words),SARS-CoV-2 [2],negligible anti-viral activity
C[C@H](CCC(=O)O)C[C@H](C)C[C@H](C)C(=O)/C=C(\O)[C@H](C)C[C@H](C)C/C=C/[C@@H](C)[C@@H](O)[C@@H](C)[C@@H](O)C[C@@H]1CC[C@@](C)([C@H]2CC[C@@](C)([C@@H](C)O)O2)O1 [Ionomycin],selectivity between viral-induced cytopathogenicity and inhibition of cell viability,SARS-CoV-2 [2],5 fold
